Results: PubChem BioAssay (NCI)
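Dose response: 5 concentrations. Exposure: 48 h. Format: 96-well plates. Endpoint: linear interpolation; highest concentration if not reached. Abbreviation: GI50, concentration required for 50% inhibition of growth. The concentration for full growth arrest is given as TGI.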

Tests used:
Experiment in all cases: DTP human tumour cell line panel, 48 h
CCRF-CEM leukemia = system: CCRF-CEM leukemia
SK-MEL-5 melanoma = system: SK-MEL-5 melanoma
U251 CNS = system: U251 CNS
SK-OV-3 ovarian = system: SK-OV-3 ovarian
EKVX NSCLC = system: EKVX NSCLC
T-47D breast = system: T-47D breast
LOX IMVI melanoma = system: LOX IMVI melanoma
NCI/ADR-RES ovarian = system: NCI/ADR-RES ovarian
UACC-62 melanoma = system: UACC-62 melanoma
MDA-MB-231 breast = system: MDA-MB-231 breast

SMILES	GI50 (CCRF-CEM leukemia)	TGI (CCRF-CEM leukemia)	GI50 (SK-MEL-5 melanoma)	TGI (SK-MEL-5 melanoma)	GI50 (U251 CNS)	TGI (U251 CNS)	GI50 (SK-OV-3 ovarian)	TGI (SK-OV-3 ovarian)	GI50 (EKVX NSCLC)	TGI (EKVX NSCLC)	GI50 (T-47D breast)	TGI (T-47D breast)	GI50 (LOX IMVI melanoma)	TGI (LOX IMVI melanoma)	GI50 (NCI/ADR-RES ovarian)	TGI (NCI/ADR-RES ovarian)	GI50 (UACC-62 melanoma)	TGI (UACC-62 melanoma)	GI50 (MDA-MB-231 breast)	TGI (MDA-MB-231 breast)
CNC(=O)c1ccc(N2C(=S)N(c3cnc(C#N)c(C(F)(F)F)c3)C(=O)C23CCC3)cc1F	> 100 µM	> 100 µM	> 100 µM	> 100 µM	> 100 µM	> 100 µM	> 100 µM	> 100 µM	> 100 µM	> 100 µM	80.6 µM	> 100 µM	> 100 µM	> 100 µM	> 100 µM	> 100 µM	> 70.5 µM	> 100 µM	> 100 µM	> 100 µM
Cc1c(-c2cnccn2)ssc1=S		> 77.4 µM		> 100 µM		> 100 µM		93 µM		90.9 µM		> 100 µM		98.8 µM		> 100 µM		> 100 µM		> 100 µM
COc1ccc(Nc2nc3cc(N)cc(N)c3nc2-c2ccccc2)cc1	12 µM	> 100 µM	15.3 µM	28.6 µM	16.3 µM	29.8 µM	32.8 µM	97.5 µM	26 µM	> 100 µM	17.8 µM	53.8 µM	16.1 µM	29.8 µM	18.9 µM	44.9 µM	16.8 µM	30.5 µM	11.6 µM	25.2 µM
Oc1c(Cl)cc(Cl)c(Cl)c1CNCCNCc1c(O)c(Cl)cc(Cl)c1Cl	0.231 µM	> 50 µM	1.35 µM	8.06 µM	0.556 µM	6.61 µM	1.48 µM	7.7 µM	1.32 µM	10.2 µM	0.988 µM	> 50 µM	0.357 µM	5.19 µM	0.245 µM	6.84 µM	0.917 µM	5.45 µM	2.27 µM	16.6 µM
COc1cc2c(cc1OC(C)C)[C@H](c1ccc(Cl)cc1)N(c1ccc(N(C)CC3CCC(N4CCN(C)C(=O)C4)CC3)cc1)C(=O)C2 (stereo not given in full)	2.61 µM	7.48 µM	1.44 µM	2.84 µM	3.34 µM	8.44 µM	4.05 µM	8.86 µM	1.93 µM	7.81 µM	2.62 µM	11.8 µM	0.516 µM	2.19 µM	3.18 µM	14.7 µM	0.521 µM	3.52 µM	2.04 µM	4.02 µM
Cc1ccc(O)c(NC(=O)c2cccc(Nc3ccnc(C(F)(F)F)c3)c2)c1	1.82 µM	39.2 µM	2.15 µM	14 µM	15.6 µM	37.6 µM	16.6 µM	62 µM	3.37 µM	59.4 µM	2.29 µM	24 µM	9.46 µM	27.4 µM	3 µM	32.4 µM	3.82 µM	20.7 µM	11.6 µM	44.8 µM
COc1ccc(C(=O)C(CN(C)C)CN(C)C)cc1	1.39 µM	5.13 µM	15.3 µM	29 µM	14.2 µM	34.1 µM	20.2 µM	59.5 µM	13.7 µM	51.1 µM	1.86 µM	5.28 µM	2.08 µM	5.04 µM	2.6 µM	6.42 µM	5.27 µM	19.4 µM	14.6 µM	36.6 µM
O=C(O)CCNCC(=O)O		> 100 µM		> 100 µM		> 100 µM		> 100 µM		> 100 µM		> 100 µM		> 100 µM		> 100 µM		> 100 µM		> 100 µM
CN(Cc1ccccc1)Cn1ccnc1		> 71.2 µM		> 63.4 µM		> 100 µM		> 100 µM		> 100 µM		> 100 µM		> 100 µM		> 100 µM		> 100 µM		98.1 µM
O=C1N[C@@H]2[C@@H](O)[C@@H](O)[C@H](O)C[C@H]2c2cc3c(c(O)c21)OCCO3	0.0737 µM	1.83 µM	0.192 µM	0.478 µM	0.238 µM	8.42 µM	0.496 µM	4.03 µM	0.323 µM	1.85 µM	0.176 µM	1.31 µM	0.167 µM	0.444 µM	0.629 µM	5.38 µM	0.272 µM	1.38 µM	0.236 µM	1.07 µM
O=C(CN(/C=C/C(=O)C(F)(F)F)c1ccc(Cl)cc1)c1ccc(Cl)cc1	5.11 µM	24.4 µM	11.6 µM	24.3 µM	7.53 µM	20.5 µM	17.9 µM	33.5 µM	14.3 µM	28.7 µM	5.88 µM	38.3 µM	4.61 µM	20.9 µM	9.07 µM	37 µM	3.03 µM	13.4 µM	11.5 µM	23.7 µM
